Data as given in patent US10294202B2, “Pyrrolidinones as herbicides” (FMC Corporation, priority 2013, dated 2019).

How the values were obtained:
corn = experiment: Test A pre-/postemergence herbicide test; format: in vivo, Zea mays
How it was run: (§1)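 Visual injury ratings, 0 = no effect, 100 = complete control, taken ~10 days after treatment against untreated greenhouse controls. Preemergence: directed soil spray onto seeded loam/sand pots. Postemergence: spray onto plants at one- to two-leaf stage, 2–10 cm tall.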

blackgrass = experiment: Test A postemergence herbicide test; format: in vivo, Alopecurus myosuroides
How it was run: (§2)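 Injury was rated visually about 10 days after treatment on a 0 (no effect) to 100 (complete control) scale, compared with untreated plants. Test chemicals were sprayed postemergence onto greenhouse plants 2–10 cm high at one to two leaves, grown in a loam–sand blend.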

ducksalad = experiment: Test C flooded paddy test; format: in vivo, Heteranthera limosa; details: Flood
How it was run: (§3)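 Visual ratings from 0, no effect, to 100, complete control, were made against untreated controls after 13–15 greenhouse days. Compounds had gone straight into paddy water 3 cm above the soil, kept at that depth, on 2-leaf-stage plants.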

giant foxtail = experiment: Test A pre-/postemergence herbicide test; format: in vivo, Setaria faberii
How it was run: as §1

sedge, umbrella = experiment: Test C flooded paddy test; format: in vivo, Cyperus difformis; details: Flood
How it was run: as §3

galium = experiment: Test A postemergence herbicide test; format: in vivo, Galium aparine
How it was run: as §2

barnyardgrass [1] = experiment: Test C flooded paddy test; format: in vivo, Echinochloa crus-galli; details: Flood
How it was run: as §3

rice = experiment: Test C flooded paddy test; format: in vivo, Oryza sativa; details: Flood
How it was run: as §3

barnyardgrass [2] = experiment: Test A pre-/postemergence herbicide test; format: in vivo, Echinochloa crus-galli
How it was run: as §1

wheat = experiment: Test A pre-/postemergence herbicide test; format: in vivo, Triticum aestivum
How it was run: as §1

kochia = experiment: Test A pre-/postemergence herbicide test; format: in vivo, Kochia scoparia; details: for Plant response rating, Kochia: 0 to 100 scale
How it was run: as §1

ryegrass, Italian = experiment: Test A pre-/postemergence herbicide test; format: in vivo, Lolium multiflorum; details: for Plant response rating, Ryegrass, Italian: 0 to 100 scale
How it was run: as §1

ragweed = experiment: Test A pre-/postemergence herbicide test; format: in vivo, Ambrosia elatior; details: for Plant response rating, Ragweed: 0 to 100 scale
How it was run: as §1

pigweed = experiment: Test A pre-/postemergence herbicide test; format: in vivo, Amaranthus retroflexus
How it was run: as §1

crabgrass, large = experiment: Test A pre-/postemergence herbicide test; format: in vivo, Digitaria sanguinalis
How it was run: as §1

morningglory = experiment: Test A pre-/postemergence herbicide test; format: in vivo, Ipomoea spp.; details: for Plant response rating, Morningglory: 500 g ai/ha
How it was run: as §1

velvetleaf = experiment: Test A pre-/postemergence herbicide test; format: in vivo, Abutilon theophrasti; details: for Plant response rating, Velvetleaf: 500 g ai/ha
How it was run: as §1

[3] = Postemergence, 125 g ai/ha, 0 to 100 scale, 0 no effect, 100 complete control
[4] = Postemergence, 500 g ai/ha, 0 to 100 scale (0 no effect, 100 complete control)
[5] = 125 g ai/ha, 0 to 100 scale, 0 no effect, 100 complete control
[6] = 125 g ai/ha, scale of 0 to 100 where 0 is no effect and 100 is complete control, 13 to 15 days
[7] = 125 g ai/ha, visual rating, 0 to 100 scale, 0 no effect, 100 complete control, approximately 10 days, preemergence
[8] = preemergence, 500 g ai/ha, 0 to 100 scale
[9] = preemergence, 500 g ai/ha, 0 to 100 scale (0 no effect, 100 complete control)
[10] = 125 g ai/ha, visual rating, 0 no effect, 100 complete control, approximately 10 days, preemergence
[11] = Postemergence, 125 g ai/ha, 0 no effect, 100 complete control
[12] = Preemergence, 125 g ai/ha, visual rating on 0 to 100 scale (0 no effect, 100 complete control)
[13] = 31 g ai/ha, scale of 0 to 100 where 0 is no effect and 100 is complete control, 13 to 15 days
[14] = 62 g ai/ha, scale of 0 to 100 where 0 is no effect and 100 is complete control, 13 to 15 days
[15] = Postemergence, 0 to 100 scale (0 no effect, 100 complete control)

Q: What does the source list for `O=C1NCC(c2cccc(C(F)(F)F)c2)C1C(=O)Nc1ncc(Cl)s1` (racemic) [Compound 113]?
A: Plant response rating, Corn (corn; [3]): 0; Plant response rating, Corn (corn; [4]): 0; Plant response rating, Blackgrass (blackgrass; [5]): 0; Plant response rating, Blackgrass (blackgrass; 500 g ai/ha, 0 to 100 scale (0 no effect, 100 complete control)): 0; Plant response rating, Ducksalad (ducksalad; [6]): 20; Plant response rating, Ducksalad (ducksalad; 250 g ai/ha, scale 0 to 100): 30; Plant response rating, Ducksalad (ducksalad; 500 g ai/ha, scale 0 to 100): 50; Plant response rating, Ducksalad (ducksalad; 1000 g ai/ha, scale 0 to 100): 70; Plant response rating, Foxtail, Giant (giant foxtail; [7]): 0; Plant response rating, Foxtail, Giant (giant foxtail; [3]): 0; Foxtail, Giant plant response rating (0 to 100 scale, 0 is no effect, 100 is complete control) (giant foxtail; Postemergence, 500 g ai/ha): 0; Plant response rating, Foxtail, Giant (giant foxtail; [8]): 0; Plant response rating, Sedge, Umbrella (sedge, umbrella; [6]): 0; Plant response rating, Sedge, Umbrella (sedge, umbrella; 250 g ai/ha, scale 0 to 100): 0; Plant response rating, Sedge, Umbrella (sedge, umbrella; 500 g ai/ha, scale 0 to 100): 0; Plant response rating, Sedge, Umbrella (sedge, umbrella; 1000 g ai/ha, scale 0 to 100): 0; Plant response rating, Galium (galium; [5]): 0; Galium plant response rating (0 to 100 scale, 0 is no effect, 100 is complete control) (galium; 500 g ai/ha): 0; Plant response rating, Barnyardgrass (barnyardgrass [1]; [6]): 0; Plant response rating, Barnyardgrass (barnyardgrass [1]; 250 g ai/ha, scale 0 to 100): 0; Plant response rating, Barnyardgrass (barnyardgrass [1]; 500 g ai/ha, scale 0 to 100): 0; Plant response rating, Barnyardgrass (barnyardgrass [1]; 1000 g ai/ha, scale 0 to 100): 0; Plant response rating, Rice (rice; [6]): 0; Plant response rating, Rice (rice; 250 g ai/ha, scale 0 to 100): 0; Plant response rating, Rice (rice; 500 g ai/ha, scale 0 to 100): 0; Plant response rating, Rice (rice; 1000 g ai/ha, scale 0 to 100): 0; Plant response rating, Barnyardgrass (barnyardgrass [2]; [7]): 0; Plant response rating, Barnyardgrass (barnyardgrass [2]; [3]): 0; Plant response rating, Barnyardgrass (barnyardgrass [2]; [4]): 0; Plant response rating, Barnyardgrass (barnyardgrass [2]; [9]): 0; Plant response rating, Wheat (wheat; [3]): 0; Wheat plant response rating (0 to 100 scale, 0 is no effect, 100 is complete control) (wheat; Postemergence, 500 g ai/ha): 0; Plant response rating, Kochia (kochia; [10]): 0; Plant response rating, Kochia (kochia; [11]): 0; Kochia plant response rating (0 to 100 scale, 0 is no effect, 100 is complete control) (kochia; Postemergence, 500 g ai/ha): 0; Plant response rating, Kochia (kochia; preemergence, 500 g ai/ha): 0; Plant response rating, Ryegrass, Italian (ryegrass, Italian; [10]): 0; Plant response rating, Ryegrass, Italian (ryegrass, Italian; [11]): 0; Ryegrass, Italian plant response rating (0 to 100 scale, 0 is no effect, 100 is complete control) (ryegrass, Italian; Postemergence, 500 g ai/ha): 0; Plant response rating, Ryegrass, Italian (ryegrass, Italian; preemergence, 500 g ai/ha): 0; Plant response rating, Ragweed (ragweed; [10]): 0; Plant response rating, Ragweed (ragweed; [11]): 0; Ragweed plant response rating (0 to 100 scale, 0 is no effect, 100 is complete control) (ragweed; Postemergence, 500 g ai/ha): 0; Plant response rating, Ragweed (ragweed; preemergence, 500 g ai/ha): 0; Plant response rating, Pigweed (pigweed; [7]): 0; Plant response rating, Pigweed (pigweed; [3]): 0; Pigweed plant response rating (0 to 100 scale, 0 is no effect, 100 is complete control) (pigweed; Postemergence, 500 g ai/ha): 0; Plant response rating, Pigweed (pigweed; [8]): 0

Q: Which results are given for `O=C1NCC(c2cccc(C(F)(F)F)c2)C1C(=O)Nc1ccccc1C(F)(F)F` (racemic) [Compound 4]?
A: Plant response rating, Corn (corn; [3]): 0; Plant response rating, Corn (corn; [4]): 50; Corn plant response rating (corn; [12]): 0; Plant response rating, Corn (corn; [8]): 0; Plant response rating, Ducksalad (ducksalad; [13]): 20; Plant response rating, Ducksalad (ducksalad; [14]): 30; Plant response rating, Ducksalad (ducksalad; [6]): 80; Plant response rating, Ducksalad (ducksalad; 250 g ai/ha, scale 0 to 100): 85; Plant response rating, Foxtail, Giant (giant foxtail; [3]): 60; Plant response rating, Foxtail, Giant (giant foxtail; [4]): 70; Foxtail, Giant plant response rating (giant foxtail; [12]): 80; Plant response rating, Foxtail, Giant (giant foxtail; [8]): 90; Plant response rating, Sedge, Umbrella (sedge, umbrella; [13]): 0; Plant response rating, Sedge, Umbrella (sedge, umbrella; [14]): 0; Plant response rating, Sedge, Umbrella (sedge, umbrella; [6]): 0; Plant response rating, Sedge, Umbrella (sedge, umbrella; 250 g ai/ha, scale 0 to 100): 0; Plant response rating, Barnyardgrass (barnyardgrass [1]; [13]): 0; Plant response rating, Barnyardgrass (barnyardgrass [1]; [14]): 0; Plant response rating, Barnyardgrass (barnyardgrass [1]; [6]): 30; Plant response rating, Barnyardgrass (barnyardgrass [1]; 250 g ai/ha, scale 0 to 100): 40; Plant response rating, Rice (rice; [13]): 0; Plant response rating, Rice (rice; [14]): 0; Plant response rating, Rice (rice; [6]): 0; Plant response rating, Rice (rice; 250 g ai/ha, scale 0 to 100): 0; Plant response rating, Barnyardgrass (barnyardgrass [2]; [3]): 60; Plant response rating, Barnyardgrass (barnyardgrass [2]; [4]): 70; Barnyardgrass plant response rating (barnyardgrass [2]; [12]): 60; Plant response rating, Barnyardgrass (barnyardgrass [2]; [9]): 80; Plant response rating, Wheat (wheat; [4]): 50; Wheat plant response rating (wheat; [12]): 60; Plant response rating, Wheat (wheat; [8]): 70; Plant response rating, Crabgrass, Large (crabgrass, large; [3]): 60; Plant response rating, Crabgrass, Large (crabgrass, large; [4]): 80; Crabgrass, Large plant response rating (crabgrass, large; [12]): 90; Plant response rating, Crabgrass, Large (crabgrass, large; [8]): 90; Plant response rating, Morningglory (morningglory; [15]): 30; Morningglory plant response rating (morningglory; [12]): 0; Plant response rating, Morningglory (morningglory; preemergence, 0 to 100 scale): 0; Plant response rating, Pigweed (pigweed; [4]): 50; Pigweed plant response rating (pigweed; [12]): 0; Plant response rating, Pigweed (pigweed; [8]): 0; Plant response rating, Velvetleaf (velvetleaf; [15]): 0; Velvetleaf plant response rating (velvetleaf; [12]): 0; Plant response rating, Velvetleaf (velvetleaf; preemergence, 0 to 100 scale): 0
